# Measurements as given in patent publication US20020040203A1, “Method for transdermal or intradermal delivery of molecules” (priority 2000, published 2002).
# Tests used:
# [1] = cited from earlier work
# [2] = cited from earlier work; for charge: pH 8 stated for PP-IX
# [3] = Transport of model molecules through heat-stripped porcine stratum corneum by electroporation, Hanson Vertical Diffusion chamber; assay type: in vitro ADME; conditions: for transport across the SC to the acceptor chamber: negative pulses 375V, 1 msec, 1 Hz, up to 30 min
# Experimental: Stratum corneum layer was obtained from porcine skin by heat treatment as follows. Fresh pieces of porcine skin were wrapped in aluminum foil and placed in a 60° C. water bath for 5 minutes. The SC was gently pulled away from the remaining tissue. The SC can be used directly or stored on glass microscope slides at 4° C. The SC was then used in a Hanson Vertical Diffusion chamber. This simple device is an accepted model system for studying transport through skin by those skilled in the art. This device contains two compartments which are filled with a suitable buffer (10 mM Tris, 100 mM NaCl, 1 mM EDTA at pH 8.0). One of the compartments acts as the donor and the other as the acceptor. The liposomes and the test molecule are added to the donor chamber. The outermost layer of the skin, the SC forms an effective barrier to the transport of biomolecules. The upper chamber was considered as the outer surface of the skin and the lower chamber as the skin directly below the SC. Platinum wires served as electrodes, one was placed in the upper chamber and the other in the lower chamber. Electric pulses were applied across the SC using a pulse generator.
# Lipid formulations were prepared as follows. Dioleylphosphatidylglycerol and dioleylphosphatidyl choline was mixed at an approximate 1:1 molar ratio and dispersed in buffer by vigorous vortexing resulting in the formation of multilamellar lipid vesicles (MLV). The molecular weights of the molecules tested range from 200 to 600. The model molecules were chosen for their charge and their respective solubility.
# […] The model molecule as a solution in buffer was then added to the upper chamber. During the next 10 min no pulses were applied. An aliquot of the buffer was removed from the lower (acceptor) chamber. Pulses were next applied for 10, 20 and 30 min and aliquots removed from the lower chamber for analysis at 10, 20 and 30 min to determine delivery of the model molecule. Another aliquot was removed from the lower chamber 10 min after cessation of pulse application. In control studies, the SC was pre-pulsed for 10 min with buffer only (no lipid) and then the model molecule added in the upper chamber and pulsed for three further periods of 10 min each.
# The amount of the model molecule transported to the acceptor chamber was measured in the aliquots removed at different times by using fluorescence spectroscopy.
# [4] = SC pre-treated with DOPG:DOPC lipid formulation
# [5] = absence of lipid formulation (pre-pulsed with buffer only)
"effect of lipid formulation on transport ([3]; pulses of positive polarity, DOPG:DOPC MLV present)",Molecule,log P (partition coefficient between octanol and water) [1],solubility [2],charge [2],"transport across the SC to the acceptor chamber [3, 4]","transport across the SC to the acceptor chamber [3, 5]","concentration in the lower chamber after cessation of pulse application ([3]; negative pulses, SC pre-treated with lipid formulation, 10 min without pulse)"
–,bleomycin,very negative,–,–,–,–,–
–,methylated protoprophyrin IX [MPP-IX],–,soluble only in the presence of detergents,no charge,enhanced transport,very low transport,–
inhibited the transport of MB,"CN(C)c1ccc2nc3ccc(=[N+](C)C)cc-3sc2c1 [MB, Methylene Blue]",–,–,positively charged,large amount of MB transported across the SC,very little MB present in the acceptor chamber,continued increase in MB concentration in the lower chamber
–,"C=CC1=C(C)c2cc3[nH]c(cc4nc(cc5[nH]c(cc1n2)c(C)c5CCC(=O)O)C(CCC(=O)O)=C4C)c(C)c3C=C [PP-IX, protoporphyrin IX]",–,low solubility,–,an increase in the transport in the presence of the added lipid,significant transport of PP-IX across the SC,–
